Results taken from patent EP1356819A1, “Use of proteasome/ubiquitination inhibitors and/or MMP inhibitors alone or in combination with a growth hormone for treating /preventing catabolic conditions” (Universitair Medisch Centrum Utrecht, priority 2002, dated 2003).
Like-named read-outs stand apart in the source and are kept apart here. Where a SMILES comes first, the peptide text is derived from it. The star is where a group is joined. Cbz = O=C(OCc1ccccc1)*

How the values were obtained:
[1] = tested on: GH binding protein (GHBP); test: Release of GH binding protein into the growth medium, Western blotting with Mab5 antibody; assay type: cell-based, rabbit; details: 1 µM; growth medium after 150 min at 30°C (Fig. 3)
Procedure: Cell lines and plasmids. Chinese hamster lung cells, ts20, bearing a thermolabile ubiquitin-activating enzyme E1, and E36 control cells were stably transfected with a pCB6 construct containing the full length rabbit GHR cDNA sequence. The newly established cell lines were grown at 30°C in MEMα supplemented with 10% FCS, 4.5 g/l glucose, 100 U/ml penicillin, 100 µg/ml streptomycin and 0.45 mg/ml geneticin (van Kerkhof et al., 2002). Sixteen hours before the start of the experiment, 10 mM butyrate was added to increase the expression of the GHR (van Kerkhof et al., 2002).
Cell lysis, immunoprecipitation, and western blotting. […] Cell lysates were subjected to SDS-polyacrylamide gel electrophoresis using a precast ready gel system (BioRad, Veenendaal, The Netherlands) and transferred to polyvinylidenedifluoride (PVDF) paper. The blots were immunostained using the polyclonal GHR antibodies anti-T or anti-B or the monoclonal antibody mAb5 followed by peroxidase conjugated protein A or rabbit anti-mouse IgG (Pierce Chemical Co.) as described previously (van Kerkhof et al. 2002), and detected by enhanced chemiluminescence (Roche Molecular Biochemicals).
• Fig. 1. […] Quantification of receptors at the cell surface. […] The number GHRs were calculated and expressed as a percentage of untreated cells. • Fig. 3. […]

GHR = test: Western blotting of GHR species (mature and precursor) in cell lysates after drug treatment; assay type: cell-based, rabbit
Procedure: Cell lines and plasmids. Chinese hamster lung cells, ts20, bearing a thermolabile ubiquitin-activating enzyme E1, and E36 control cells were stably transfected with a pCB6 construct containing the full length rabbit GHR cDNA sequence.
Antibodies and materials. […] Inhibitors were dissolved in dimethylsulfoxide (DMSO).
Cell lysis, immunoprecipitation, and western blotting. Cells (in 6-cm dishes) were lysed on ice in 1.0 mL of lysis buffer containing 1% Triton X-100, 1 mM EDTA in PBS, with 50 mM NaF, 1 mM Na3VO4, 10 µg/ml aprotinin, 10 µg/ml leupeptin, and 1 mM PMSF. Cell lysates were subjected to SDS-polyacrylamide gel electrophoresis using a precast ready gel system (BioRad, Veenendaal, The Netherlands) and transferred to polyvinylidenedifluoride (PVDF) paper.
• Fig. 1. Effect of various drugs on GHR species. Cells were treated for 3 h as follows: lane 1, vehicle; lane 2, MG132 (10 µM); lane 3, Tapi-I (10 µM); lane 4, MG132 (10 µM) and Tapi-I (10 µM); lane 5, cycloheximide (0.1 mM); m, mature; p, precursor GHR. […] Quantification of receptors at the cell surface. […] The number GHRs were calculated and expressed as a percentage of untreated cells. • Fig. 3. Effect of metalloprotease inhibitors on the release of GH binding protein.

[2] = Chinese hamster lung cells transfected with rabbit GHR, treated for 3 h, MG132 10 µM, Tapi-I 10 µM, cycloheximide 0.1 mM, compared with vehicle control (Fig. 1)

Row | SMILES | inhibition of shedding of GHBP [1] | amount of precursor GHR (GHR; [2]) | steady state amount of mature GHR (GHR; [2]) | amount of precursor GHR (GHR) | steady state amount of mature GHR (GHR)
1 | CNC(=O)[C@H](Cc1c[nH]c2ccccc12)NC(=O)[C@@H](CC(=O)NO)CC(C)C [GM6001] | almost completely inhibited | – | – | – | –
2 | CC(C)C[C@@H](C=O)NC(=O)[C@H](CC(C)C)NC(=O)[C@H](CC(C)C)NC(=O)OCc1ccccc1 [MG132, carbobenzoxy-L-leucyl-L-leucyl-L-leucinal] (Cbz-Leu-Leu-Leu-aldehyde) | – | remained constant | decreased | – | –
3 | CC(C)C[C@H](CC(=O)NO)C(=O)N[C@@H](Cc1ccc2ccccc2c1)C(=O)N[C@@H](C)C(=O)NCCN [Tapi-I] | almost completely inhibited | unchanged | slight increase | – | –
4 | C[C@@H]1C[C@@H]([C@H](O)CC2CC(=O)NC(=O)C2)C(=O)[C@@H](C)C1 [cycloheximide] | – | – | – | virtually disappeared | virtually disappeared
